Results: US20250215029A1 (Recludix Pharma, Inc., priority 2022, published 2025)
pIC50: −log10 of the molar value. Like-named read-outs stand apart in the source and are kept apart here.

Assays:
[1] = biological target: T1, Recombinant STAT6 protein (STAT6 (W123-T658)) (Homo sapiens, UniProt P42226); assay: STAT6 Fluorescence Polarization (FP) Assay; assay type: binding; conditions: 45-minute incubation
T1 construct: Recombinant STAT6 protein (STAT6 (W123-T658))
T1 sequence (P42226 123-658): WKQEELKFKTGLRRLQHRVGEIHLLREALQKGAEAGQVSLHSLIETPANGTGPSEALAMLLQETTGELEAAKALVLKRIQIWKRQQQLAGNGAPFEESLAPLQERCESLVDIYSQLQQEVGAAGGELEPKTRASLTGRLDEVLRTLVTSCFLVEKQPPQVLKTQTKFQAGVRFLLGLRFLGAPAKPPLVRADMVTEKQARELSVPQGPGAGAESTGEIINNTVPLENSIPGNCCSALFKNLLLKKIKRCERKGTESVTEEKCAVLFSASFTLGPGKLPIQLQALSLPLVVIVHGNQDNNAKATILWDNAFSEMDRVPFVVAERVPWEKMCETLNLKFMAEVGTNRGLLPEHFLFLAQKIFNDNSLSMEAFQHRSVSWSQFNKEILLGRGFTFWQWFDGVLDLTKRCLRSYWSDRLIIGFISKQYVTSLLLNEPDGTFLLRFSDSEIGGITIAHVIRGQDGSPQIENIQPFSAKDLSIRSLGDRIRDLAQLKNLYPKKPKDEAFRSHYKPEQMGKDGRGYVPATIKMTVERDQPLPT
Outline: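 Fluorescence polarization (mP) read-out: 250 nM STAT6 (W123-T658) plus 2 nM 5-FAM phosphotyrosine peptide, 45 min, room temperature, 1% DMSO. IC50 by nonlinear fit of mP against log compound concentration.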

[2] = biological target: T2, Recombinant STAT3 protein (STAT3 (G127-I722)) (Homo sapiens, UniProt P40763); assay: STAT3 Fluorescence Polarization (FP) Assay; assay type: binding; conditions: probe 5-FAM-GpYLPQTV-NH2 2 nM, 45-minute incubation
T2 construct: Recombinant STAT3 protein (STAT3 (G127-I722))
T2 sequence (P40763 127-722): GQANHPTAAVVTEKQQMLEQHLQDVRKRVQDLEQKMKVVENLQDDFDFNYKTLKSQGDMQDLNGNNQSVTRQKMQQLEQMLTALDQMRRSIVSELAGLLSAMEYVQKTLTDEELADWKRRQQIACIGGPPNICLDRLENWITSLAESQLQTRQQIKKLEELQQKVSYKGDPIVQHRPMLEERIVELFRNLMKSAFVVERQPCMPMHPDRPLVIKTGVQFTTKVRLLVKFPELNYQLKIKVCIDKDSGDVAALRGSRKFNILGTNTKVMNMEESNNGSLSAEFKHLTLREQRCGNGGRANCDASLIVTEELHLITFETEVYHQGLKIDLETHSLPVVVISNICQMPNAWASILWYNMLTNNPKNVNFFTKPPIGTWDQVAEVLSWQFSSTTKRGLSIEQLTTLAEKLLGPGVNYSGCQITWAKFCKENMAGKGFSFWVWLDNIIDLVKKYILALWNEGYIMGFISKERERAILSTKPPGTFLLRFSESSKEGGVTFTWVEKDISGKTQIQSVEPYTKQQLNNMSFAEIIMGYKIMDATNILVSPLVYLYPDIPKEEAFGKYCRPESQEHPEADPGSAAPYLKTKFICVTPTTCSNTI
Outline: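 Displacement of a 2 nM 5-FAM-labelled pY peptide (GpYLPQTV) from 25 nM recombinant STAT3 (G127-I722) was monitored by fluorescence polarization. Incubation lasted 45 min at room temperature in pH 7.4 HEPES buffer containing 1% DMSO.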

[3] = STAT6 250 nM, probe 5-FAM-Ap[…]-NH2 2 nM, read-out: STAT6 (FP assay IC50)
[4] = STAT3 25 nM, read-out: STAT3 (FP assay IC50)
[5] = STAT3 (G127-I722) 25 nM, read-out: STAT3 (FP assay IC50 class)
[6] = STAT6 (W123-T658) 250 nM, probe 5-FAM-Ap[…]-NH2 2 nM, read-out: STAT6 (FP assay IC50 class)

SMILES	pIC50 [1, 3]	pIC50 [2, 4]	pIC50 ([1]; STAT6 (W123-T658) 250 nM, probe 5-FAM-ApYKPFQDLI-NH2 2 nM, read-out: STAT6 (FP assay IC50 class))	pIC50 [2, 5]	pIC50 [1, 6]
C#Cc1ncoc1C1CN(C(=O)[C@@H]2CC[C@@H]3CCCC[C@H](NC(=O)c4cc5cc(C(F)(F)P(=O)(O)O)ccc5s4)C(=O)N32)C1 [Compound 64, ((2-(((3S,6S,10aS)-3-(3-(4-ethynyloxazol-5-yl)azetidine-1-carbonyl)-5-oxodecahydropyrrolo [1,2-a]azocin-6-yl)carbamoyl)benzo[b]thiophen-5-yl)difluoromethyl) phosphonic acid]	5.52 to 6.52	> 7.00	–	–	–
N#C[C@@H]1[C@@H](c2cncc(Cl)c2)CN(C(=O)[C@@H]2CC[C@@H]3CCC[C@H](NC(=O)c4cc5cc([C@H](F)P(=O)(O)O)ccc5s4)C(=O)N32)C12CC2 (single isomer, unassigned) [Compound 842]	–	–	5.52 to 6.52	5.00 to 6.00	–
O=C(N[C@H]1CCC[C@H]2CC[C@@H](C(=O)N3CCC(c4n[nH]cc4F)CC3)N2C1=O)c1cc2cc(C(F)P(=O)(O)O)ccc2s1 (stereo partly drawn) [Compound 591, (fluoro(2-(((3S,6S,9aS)-3-(4-(4-fluoro-1H-pyrazol-3-yl)piperidine-1-carbonyl)-5-oxooctahydro-1H-pyrrolo[1,2-a]azepin-6-yl)carbamoyl)benzo[b]thiophen-5-yl)methyl)phosphonic acid]	–	–	–	5.00 to 6.00	4.52 to 5.52
O=C(N[C@H]1CCCCC[C@H]2[C@H](O)C[C@@H](C(=O)N3CC(C(=O)N4CCOCC4)C3)N2C1=O)c1cc2cc(C(F)(F)P(=O)(O)O)ccc2s1 [Compound 77, (difluoro(2-(((1R,3S,6S, 11aS)-1-hydroxy-3-(3-(morpholine-4-carbonyl)azetidine-1-carbonyl)-5-oxodecahydro-1H-pyrrolo[1,2-a]azonin-6-yl)carbamoyl)benzo[b]thiophen-5-yl)methyl) phosphonic acid]	4.52 to 5.52	6.00 to 7.00	–	–	–
O=C(N[C@H]1CCCCC[C@H]2CC[C@@H](C(=O)N3CC(C(=O)N4CCOCC4)C3)N2C1=O)c1cc2cc(C(F)(F)P(=O)(O)O)ccc2s1 [Compound 773, (difluoro(2-(((3S,6S,11aS)-3-(3-(morpholine-4-carbonyl)azetidine-1-carbonyl)-5-oxodecahydro-1H-pyrrolo[1,2-a]azonin-6-yl)carbamoyl)benzo [b]thiophen-5-yl)methyl) phosphonic acid]	–	–	–	6.00 to 7.00	< 4.52
O=C(N[C@H]1CCCC[C@H]2CC[C@@H](C(=O)N3C[C@@H](c4cccnc4)CC34CC4)N2C1=O)c1cc2cc([C@H](F)P(=O)(O)O)ccc2s1 (single isomer, unassigned) [Compound 908]	–	–	–	5.00 to 6.00	≥ 6.52
O=C(N[C@H]1CCCC[C@H]2CC[C@@H](C(=O)N3CC(OCC(F)F)(c4ccccn4)C3)N2C1=O)c1cc2cc(C(F)P(=O)(O)O)ccc2s1 (stereo partly drawn) [Compound 621, ((2-(((3S,6S,10aS)-3-(3-(2,2-difluoroethoxy)-3-(pyridin-2-yl)azetidine-1-carbonyl)-5-oxodecahydropyrrolo [1,2-a]azocin-6-yl)carbamoyl)benzo [b]thiophen-5-yl)fluoromethyl) phosphonic acid]	–	–	–	> 7.00	4.52 to 5.52
N#Cc1cccc(C2CN(C(=O)[C@@H]3CC[C@@H]4CCC[C@H](NC(=O)c5cc6cc(C(F)(F)P(=O)(O)O)ccc6s5)C(=O)N43)C2)c1 [Compound 51, ((2-(((3S,6S,9aS)-3-(3-(3-cyanophenyl)azetidine-1-carbonyl)-5-oxooctahydro-1H-pyrrolo[1,2-a]azepin-6-yl)carbamoyl)benzo[b]thiophen-5-yl)difluoromethyl) phosphonic acid]	5.52 to 6.52	> 7.00	–	–	–
CC[C@@H]1CC[C@H](NC(=O)c2cc3cc(C(F)P(=O)(O)O)ccc3s2)C(=O)N2[C@H](CC[C@H]2C(=O)N2CC(c3cnccc3OC)C2)C1 (stereo partly drawn) [Compound 210, ((2-(((3S,6S,9R,10aR)-9-ethyl-3-(3-(4-methoxypyridin-3-yl)azetidine-1-carbonyl)-5-oxodecahydropyrrolo[1,2-a]azocin-6-yl)carbamoyl)benzo[b]thiophen-5-yl)fluoromethyl)phosphonic acid]	–	–	–	> 7.00	4.52 to 5.52
O=C(N[C@H]1CCC[C@H]2CC[C@@H](C(=O)N3CC(c4cnccc4F)C3)N2C1=O)c1cc2cc([C@@H](F)P(=O)(O)O)ccc2s1 (single isomer, unassigned) [Compound 599]	–	–	–	> 7.00	5.52 to 6.52
NC(=O)Cc1cc(-c2ccccc2)ccc1NC(=O)[C@@H]1CCC2CCC[C@H](NC(=O)c3cc4cc(C(F)(F)P(=O)(O)O)ccc4s3)C(=O)N21 (stereo partly drawn) [Compound 1122, ((2-(((35,6S)-3-((3-(2-amino-2-oxoethyl)-[1,1′-biphenyl]-4-yl)carbamoyl)-5-oxooctahydro-1H-pyrrolo[1,2-a]azepin-6-yl)carbamoyl)benzo[b]thiophen-5-yl)difluoromethyl)phosphonic acid]	–	–	–	6.00 to 7.00	4.52 to 5.52
CN=S(C)(=O)CC1(OC)CN(C(=O)[C@@H]2CC[C@@H]3CCC[C@H](NC(=O)c4cc5cc(C(F)(F)P(=O)(O)O)ccc5s4)C(=O)N32)C1 (stereo partly drawn) [Compound 827, ((2-(((3S,6S,9aS)-3-(3-((N,S-dimethyl-sulfonimidoyl)methyl)-3-methoxyazetidine-1-carbonyl)-5-oxooctahydro-1H-pyrrolo[1,2-a]azepin-6-yl)carbamoyl)benzo [b]thiophen-5-yl)difluoromethyl) phosphonic acid]	–	–	–	6.00 to 7.00	4.52 to 5.52
O=C(N[C@H]1CCC[C@H]2CC[C@@H](C(=O)N3CC(c4cnccc4F)C3)N2C1=O)c1cc2cc(C(F)(F)P(=O)(O)O)ccc2s1 [Compound 762, (difluoro(2-(((3S,6S,9aS)-3-(3-(4-fluoropyridin-3-yl)azetidine-1-carbonyl)-5-oxooctahydro-1H-pyrrolo[1,2-a]azepin-6-yl)carbamoyl)benzo [b]thiophen-5-yl)methyl) phosphonic acid]	–	–	–	> 7.00	5.52 to 6.52
COc1cncc([C@H]2CN(C(=O)[C@@H]3CC[C@@H]4CCC[C@H](NC(=O)c5cc6cc([C@@H](F)P(=O)(O)O)ccc6s5)C(=O)N43)C3(CC3)[C@@H]2C#N)c1 (single isomer, unassigned) [Compound 844]	–	–	–	5.00 to 6.00	5.52 to 6.52
O=C(N[C@H]1CC[C@H]2CC[C@@H](C(=O)N3CC(c4ccccn4)C3)N2C1=O)c1cc2cc(C(F)(F)P(=O)(O)O)ccc2s1 [Compound 728, (difluoro(2-(((3S,6S,8aS)-5-oxo-3-(3-(pyridin-2-yl)azetidine-1-carbonyl)octahydroindolizin-6-yl)carbamoyl)benzo [b]thiophen-5-yl)methyl) phosphonic acid]	–	–	–	6.00 to 7.00	4.52 to 5.52
N#C[C@@H]1[C@@H](c2ccccc2)CN(C(=O)[C@@H]2CC[C@@H]3CCCC[C@H](NC(=O)c4ccc5ccc(C(F)P(=O)(O)O)cc5c4)C(=O)N32)C12CC2 (single isomer, unassigned) [Compound 894]	–	–	–	5.00 to 6.00	≥ 6.52
O=C(N[C@H]1CCCC[C@H]2CC[C@@H](C(=O)N[C@H](CO)Cc3cccnc3)N2C1=O)c1cc2cc(C(F)(F)P(=O)(O)O)ccc2s1 [Compound 725, (difluoro(2-(((3S,6S,10aS)-3-(((S)-1-hydroxy-3-(pyridin-3-yl)propan-2-yl)carbamoyl)-5-oxodecahydropyrrolo [1,2-a]azocin-6-yl)carbamoyl)benzo [b]thiophen-5-yl)methyl) phosphonic acid]	–	–	–	6.00 to 7.00	4.52 to 5.52
COc1ccnc(F)c1C1CN(C(=O)[C@@H]2CC[C@@H]3CCC[C@H](NC(=O)c4cc5cc(CP(=O)(O)O)ccc5s4)C(=O)N32)C1 [Compound 578, ((2-(((3S,6S,9aS)-3-(3-(2-fluoro-4-methoxypyridin-3-yl)azetidine-1-carbonyl)-5-oxooctahydro-1H-pyrrolo[1,2-a]azepin-6-yl)carbamoyl)benzo[b]thiophen-5-yl)methyl)phosphonic acid]	–	–	–	5.00 to 6.00	4.52 to 5.52
O=C(N[C@H]1CCCC[C@H]2CC[C@@H](C(=O)NC(CO)c3c[nH]c4ncccc34)N2C1=O)c1cc2cc(C(F)(F)P(=O)(O)O)ccc2s1 (stereo partly drawn) [Compound 645, (difluoro(2-(((3S,6S,10aS)-3-((2-hydroxy-1-(1H-pyrrolo[2,3-b]pyridin-3-yl)ethyl)carbamoyl)-5-oxodecahydropyrrolo [1,2-a]azocin-6-yl)carbamoyl)benzo [b]thiophen-5-yl)methyl) phosphonic acid]	–	–	–	6.00 to 7.00	4.52 to 5.52
